The values below are quoted from earlier work in patent US20220202682A1, “INCREASING THE STABILITY OF AGENTS FOR THE TREATMENT OF KERATINOUS MATERIAL” (Henkel AG & Co. KGaA, priority 2019, published 2022).

Each structure is given as a SMILES string.

The conditions of this data set: 25° C.
For `O=C([O-])c1c(Cl)c(Cl)c(Cl)c(Cl)c1-c1c2c(Br)cc(=O)c(Br)c-2oc2c(Br)c(O)cc(Br)c12.O=C([O-])c1c(Cl)c(Cl)c(Cl)c(Cl)c1-c1c2c(Br)cc(=O)c(Br)c-2oc2c(Br)c(O)cc(Br)c12.[Na+].[Na+]` [Acid Red 92, disodium salt of 3,4,5,6-tetrachloro-2-(1,4,5,8-tetrabromo-6-hydroxy-3-oxoxanthen-9-yl)benzoic acid], the solubility in water entry was “greater than 10 g/L”.

Consider `O=S(=O)([O-])c1ccc(N=Nc2c(O)ccc3ccccc23)cc1.[Na+]` [Acid Orange 7, sodium salt of 4-[(2-hydroxy-1-naphthyl)azo]benzene sulphonate], for which the solubility in water entry was “more than 7 g/L”.

Take `O=C([O-])C1=NN(c2ccc(S(=O)(=O)[O-])cc2)C(=O)C1N=Nc1ccc(S(=O)(=O)[O-])cc1.[Na+].[Na+].[Na+]` (stereo not shown) [Acid Yellow 23, trisodium salt of 4,5-dihydro-5-oxo-1-(4-sulfophenyl)-4-((4-sulfophenyl)azo)-1H-pyrazole-3-carboxylic acid]: the “solubility in water” value is “highly soluble”.

As to `Nc1cc(S(=O)(=O)[O-])cc2cc(S(=O)(=O)[O-])c(N=Nc3ccccc3)c(O)c12.[Na+].[Na+]` [Acid Red 33, disodium salt of 5-amino-4-hydroxy-3-(phenylazo)-naphthalene-2,7-disulphonate], the solubility in water was 2500 µg/mL.
